Measurements published in patent US12186425B2, “Devices and methods for reducing cystine crystals in vivo” (University of Florida Research Foundation, Inc., priority 2017, dated 2025).
In brackets after ≈: the same amount, converted by molar mass.

Tests used:
[1] = rabbit, in vivo; cited from earlier work
[2] = reported; cited from earlier work
Solubility of cystine = type: physicochemical; details: phosphate buffered saline, aqueous buffer; read-out: saturated solution of cystine

**Q.** Which “eye drop concentration above which toxicity occurred” value [1] does the source give for NCCS [cysteamine, β-mercaptoethylamine] here?
**A.** The value was > 0.55%.

**Q.** For CC(C)(C)NC[C@H](O)COc1nsnc1N1CCOCC1 [timolol], which epithelium permeability [2] is on record?
**A.** Its epithelium permeability is 1.2×10^−7 m/s.

**Q.** For N[C@@H](CSSC[C@H](N)C(=O)O)C(=O)O [cystine], which solubility thermodynamic (Solubility of cystine) is on record?
**A.** The solubility thermodynamic was 0.11 mg/mL (≈ 458 µM).
